≈ marks a conversion by molar mass, not a printed value. *1 amine or outer side, *2 acyl side, *3 side chain or, on linkers, in order; H or OH if unused. Where a SMILES comes first, the peptide text is derived from it. Bridges are numbered along the chain shown (N, C = ends). [ ]: non-standard residue; d: D form. The star is where a group is joined. hTyr(3S-OH,4S-OH,3'-OSO3H) = N[C@H](C(=O)O)[C@H](O)[C@@H](O)c1ccc(O)c(OS(=O)(=O)O)c1; Orn(4R-OH,5R-OH) = O=C([C@H](C[C@@H](O)[C@@H](O)N[*:3])N[*:1])[*:2]; Pro(3S-OH,4S-Me) = C[C@H]1CN[C@H](C(=O)O)[C@H]1O; X1 = CCCCCOc1ccc(-c2cc(-c3ccc(C(=O)*)cc3)no2)cc1; Gln(3R-OH) = NC(=O)C[C@@H](O)[C@H](N)C(=O)O; Hyp = O=C(O)[C@@H]1C[C@@H](O)CN1
Experiments:
Format in all cases: functional
[1] = tested on: Trichosporon; assay: Antifungal activity against Trichosporon after 24 to 48 hrs by AFST-EUCAST based broth microdilution method
[2] = tested on: Pichia norvegensis; assay: Antifungal activity against Candida norvegensis after 24 to 48 hrs by AFST-EUCAST based broth microdilution method
[3] = tested on: Candida albicans; assay: Antifungal activity against Candida albicans after 24 to 48 hrs by AFST-EUCAST based broth microdilution method
[4] = tested on: Wickerhamomyces anomalus; assay: Antifungal activity against Candida pelliculosa after 24 to 48 hrs by AFST-EUCAST based broth microdilution method; details: Hansenula anomala
[5] = tested on: Saccharomyces cerevisiae; assay: Antifungal activity against Saccharomyces cerevisiae after 24 to 48 hrs by AFST-EUCAST based broth microdilution method
[6] = tested on: Cyberlindnera saturnus; assay: Antifungal activity against Williopsis saturnus after 24 to 48 hrs by AFST-EUCAST based broth microdilution method
[7] = tested on: Diutina rugosa; assay: Antifungal activity against Candida rugosa after 24 to 48 hrs by AFST-EUCAST based broth microdilution method
[8] = tested on: Meyerozyma guilliermondii; assay: Antifungal activity against Candida guilliermondii after 24 to 48 hrs by AFST-EUCAST based broth microdilution method
[9] = tested on: Nakaseomyces nivariensis; assay: Antifungal activity against Candida nivariensis after 24 to 48 hrs by AFST-EUCAST based broth microdilution method
[10] = tested on: Candida dubliniensis; assay: Antifungal activity against Candida dubliniensis after 24 to 48 hrs by AFST-EUCAST based broth microdilution method
[11] = tested on: Candida tropicalis; assay: Antifungal activity against Candida tropicalis after 24 to 48 hrs by AFST-EUCAST based broth microdilution method
[12] = tested on: Kluyveromyces lactis; assay: Antifungal activity against Candida sphaerica after 24 to 48 hrs by AFST-EUCAST based broth microdilution method
[13] = tested on: Kodamaea ohmeri; assay: Antifungal activity against Kodamaea ohmeri after 24 to 48 hrs by AFST-EUCAST based broth microdilution method
[14] = tested on: Pichia fermentans; assay: Antifungal activity against Candida lambica after 24 to 48 hrs by AFST-EUCAST based broth microdilution method
[15] = tested on: [Candida] haemuloni; assay: Antifungal activity against Candida haemulonii after 24 to 48 hrs by AFST-EUCAST based broth microdilution method; details: Candidozyma haemuli
[16] = tested on: Candida africana; assay: Antifungal activity against Candida africana after 24 to 48 hrs by AFST-EUCAST based broth microdilution method
[17] = tested on: Cyberlindnera jadinii; assay: Antifungal activity against Candida utilis after 24 to 48 hrs by AFST-EUCAST based broth microdilution method; details: Williopsis jadinii
[18] = tested on: [Candida] intermedia; assay: Antifungal activity against Candida intermedia after 24 to 48 hrs by AFST-EUCAST based broth microdilution method; details: Sungouiella intermedia
[19] = tested on: Pichia kudriavzevii; assay: Antifungal activity against Candida krusei ATCC 6258 after 24 to 48 hrs by AFST-EUCAST based broth microdilution method
[20] = tested on: Yarrowia lipolytica; assay: Antifungal activity against Candida lipolytica after 24 to 48 hrs by AFST-EUCAST based broth microdilution method
[21] = tested on: Kluyveromyces marxianus; assay: Antifungal activity against Candida kefyr after 24 to 48 hrs by AFST-EUCAST based broth microdilution method
[22] = tested on: Candida parapsilosis; assay: Antifungal activity against Candida parapsilosis ATCC 22019 after 24 to 48 hrs by AFST-EUCAST based broth microdilution method; details: Lodderomyces parapsilosis
[23] = tested on: [Candida] inconspicua; assay: Antifungal activity against Candida inconspicua after 24 to 48 hrs by AFST-EUCAST based broth microdilution method; details: Pichia inconspicua
[24] = tested on: Meyerozyma caribbica; assay: Antifungal activity against Candida fermentati after 24 to 48 hrs by AFST-EUCAST based broth microdilution method
[25] = tested on: Clavispora lusitaniae; assay: Antifungal activity against Candida lusitaniae after 24 to 48 hrs by AFST-EUCAST based broth microdilution method
[26] = tested on: Nakaseomyces glabratus; assay: Antifungal activity against Candida glabrata after 24 to 48 hrs by AFST-EUCAST based broth microdilution method
[27] = tested on: Debaryomyces hansenii; assay: Antifungal activity against Candida famata after 24 to 48 hrs by AFST-EUCAST based broth microdilution method
[28] = tested on: Cryptococcus neoformans; assay: Antifungal activity against […] after 24 to 48 hrs by AFST-EUCAST based broth microdilution method
[29] = tested on: Geotrichum; assay: Antifungal activity against Geotrichum after 24 to 48 hrs by AFST-EUCAST based broth microdilution method
[30] = tested on: Rhodotorula mucilaginosa; assay: Antifungal activity against Rhodotorula mucilaginosa after 24 to 48 hrs by AFST-EUCAST based broth microdilution method
[31] = tested on: Zygosaccharomyces; assay: Antifungal activity against Zygosaccharomyces after 24 to 48 hrs by AFST-EUCAST based broth microdilution method

SMILES: CCCCCOc1ccc(-c2cc(-c3ccc(C(=O)N[C@H]4C[C@@H](O)[C@@H](O)NC(=O)[C@@H]5[C@@H](O)[C@@H](C)CN5C(=O)[C@H]([C@H](O)CC(N)=O)NC(=O)[C@H]([C@H](O)[C@@H](O)c5ccc(O)c(OS(=O)(=O)O)c5)NC(=O)[C@@H]5C[C@@H](O)CN5C(=O)[C@H]([C@@H](C)O)NC4=O)cc3)no2)cc1 [MICAFUNGIN] (X1-[Orn(4R-OH,5R-OH)]T[Hyp][hTyr(3S-OH,4S-OH,3'-OSO3H)][Gln(3R-OH)][Pro(3S-OH,4S-Me)]; lactam 1-C)
- MIC50 [1]: 16 µg/mL (≈ 12.6 µM)
- MIC50 [2]: 0.06 µg/mL (≈ 0.0472 µM)
- MIC90 [2]: 1 µg/mL (≈ 0.787 µM)
- MIC50 [3]: 0.03 µg/mL (≈ 0.0236 µM)
- MIC90 [3]: 0.06 µg/mL (≈ 0.0472 µM)
- MIC50 [4]: 0.06 µg/mL (≈ 0.0472 µM)
- MIC90 [4]: 1 µg/mL (≈ 0.787 µM)
- MIC50 [5]: 0.25 µg/mL (≈ 0.197 µM)
- MIC90 [5]: 16 µg/mL (≈ 12.6 µM)
- MIC50 [6]: 0.25 µg/mL (≈ 0.197 µM)
- MIC90 [6]: 16 µg/mL (≈ 12.6 µM)
- MIC50 [7]: 0.06 µg/mL (≈ 0.0472 µM)
- MIC90 [7]: 1 µg/mL (≈ 0.787 µM)
- MIC50 [8]: 1 µg/mL (≈ 0.787 µM)
- MIC90 [8]: 2 µg/mL (≈ 1.57 µM)
- MIC50 [9]: 0.06 µg/mL (≈ 0.0472 µM)
- MIC90 [9]: 1 µg/mL (≈ 0.787 µM)
- MIC50 [10]: 0.06 µg/mL (≈ 0.0472 µM)
- MIC90 [10]: 1 µg/mL (≈ 0.787 µM)
- MIC50 [11]: 0.06 µg/mL (≈ 0.0472 µM)
- MIC90 [11]: 0.125 µg/mL (≈ 0.0984 µM)
- MIC50 [12]: 0.06 µg/mL (≈ 0.0472 µM)
- MIC90 [12]: 1 µg/mL (≈ 0.787 µM)
- MIC50 [13]: 0.25 µg/mL (≈ 0.197 µM)
- MIC90 [13]: 16 µg/mL (≈ 12.6 µM)
- MIC50 [14]: 0.06 µg/mL (≈ 0.0472 µM)
- MIC90 [14]: 1 µg/mL (≈ 0.787 µM)
- MIC50 [15]: 0.25 µg/mL (≈ 0.197 µM)
- MIC90 [15]: 0.25 µg/mL (≈ 0.197 µM)
- MIC50 [16]: 0.06 µg/mL (≈ 0.0472 µM)
- MIC90 [16]: 1 µg/mL (≈ 0.787 µM)
- MIC50 [17]: 0.06 µg/mL (≈ 0.0472 µM)
- MIC90 [17]: 1 µg/mL (≈ 0.787 µM)
- MIC50 [18]: 0.06 µg/mL (≈ 0.0472 µM)
- MIC90 [18]: 1 µg/mL (≈ 0.787 µM)
- MIC50 [19]: 0.25 µg/mL (≈ 0.197 µM)
- MIC90 [19]: 0.25 µg/mL (≈ 0.197 µM)
- MIC50 [20]: 0.06 µg/mL (≈ 0.0472 µM)
- MIC90 [20]: 1 µg/mL (≈ 0.787 µM)
- MIC50 [21]: 0.125 µg/mL (≈ 0.0984 µM)
- MIC90 [21]: 0.25 µg/mL (≈ 0.197 µM)
- MIC50 [22]: 2 µg/mL (≈ 1.57 µM)
- MIC90 [22]: 2 µg/mL (≈ 1.57 µM)
- MIC50 [23]: 0.06 µg/mL (≈ 0.0472 µM)
- MIC90 [23]: 1 µg/mL (≈ 0.787 µM)
- MIC50 [24]: 1 µg/mL (≈ 0.787 µM)
- MIC90 [24]: 1 µg/mL (≈ 0.787 µM)
- MIC50 [25]: 0.25 µg/mL (≈ 0.197 µM)
- MIC90 [25]: 0.5 µg/mL (≈ 0.394 µM)
- MIC50 [26]: 0.03 µg/mL (≈ 0.0236 µM)
- MIC90 [26]: 0.06 µg/mL (≈ 0.0472 µM)
- MIC50 [27]: 0.06 µg/mL (≈ 0.0472 µM)
- MIC90 [27]: 1 µg/mL (≈ 0.787 µM)
- MIC50 [28]: 16 µg/mL (≈ 12.6 µM)
- MIC90 [28]: 16 µg/mL (≈ 12.6 µM)
- MIC50 [29]: 0.25 µg/mL (≈ 0.197 µM)
- MIC90 [29]: 16 µg/mL (≈ 12.6 µM)
- MIC50 [30]: 16 µg/mL (≈ 12.6 µM)
- MIC50 [31]: 0.25 µg/mL (≈ 0.197 µM)
- MIC90 [31]: 16 µg/mL (≈ 12.6 µM)
